Measured values as given in PubChem BioAssay (NCI).
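All cell lines were grown in 96-well plates and treated with compound for 48 hours. GI50 is the concentration that inhibits growth by half. At the TGI there is no net growth.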

Columns and labels:
Assay in all cases: NCI anticancer screen, dose series, 48 h
786-0 renal = test system: 786-0 renal
A498 renal = test system: A498 renal
A549 NSCLC = test system: A549 NSCLC
ACHN renal = test system: ACHN renal
BT-549 breast = test system: BT-549 breast
CAKI-1 renal = test system: CAKI-1 renal
CCRF-CEM leukemia = test system: CCRF-CEM leukemia
COLO 205 colon = test system: COLO 205 colon
DU-145 prostate = test system: DU-145 prostate
EKVX NSCLC = test system: EKVX NSCLC
HCC-2998 colon = test system: HCC-2998 colon
HCT-116 colon = test system: HCT-116 colon
HCT-15 colon = test system: HCT-15 colon
HL-60(TB) leukemia = test system: HL-60(TB) leukemia
HOP-62 NSCLC = test system: HOP-62 NSCLC
HOP-92 NSCLC = test system: HOP-92 NSCLC
HS 578T breast = test system: HS 578T breast
HT29 colon = test system: HT29 colon
IGROV1 ovarian = test system: IGROV1 ovarian
K-562 leukemia = test system: K-562 leukemia
KM12 colon = test system: KM12 colon
LOX IMVI melanoma = test system: LOX IMVI melanoma
M14 melanoma = test system: M14 melanoma
MALME-3M melanoma = test system: MALME-3M melanoma
MCF7 breast = test system: MCF7 breast
MDA-MB-231 breast = test system: MDA-MB-231 breast
MDA-MB-435 = test system: MDA-MB-435
MOLT-4 leukemia = test system: MOLT-4 leukemia
NCI-H226 lung = test system: NCI-H226 lung
NCI-H23 lung = test system: NCI-H23 lung
NCI-H460 lung = test system: NCI-H460 lung
NCI-H522 lung = test system: NCI-H522 lung
NCI/ADR-RES ovarian = test system: NCI/ADR-RES ovarian
OVCAR-3 ovarian = test system: OVCAR-3 ovarian
OVCAR-4 ovarian = test system: OVCAR-4 ovarian
OVCAR-5 ovarian = test system: OVCAR-5 ovarian
OVCAR-8 ovarian = test system: OVCAR-8 ovarian
PC-3 prostate = test system: PC-3 prostate
RPMI-8226 leukemia = test system: RPMI-8226 leukemia
SF-268 CNS = test system: SF-268 CNS
SF-295 CNS = test system: SF-295 CNS
SF-539 CNS = test system: SF-539 CNS
SK-MEL-2 melanoma = test system: SK-MEL-2 melanoma
SK-MEL-28 melanoma = test system: SK-MEL-28 melanoma
SK-MEL-5 melanoma = test system: SK-MEL-5 melanoma
SK-OV-3 ovarian = test system: SK-OV-3 ovarian
SN12C renal = test system: SN12C renal
SNB-19 CNS = test system: SNB-19 CNS
SNB-75 CNS = test system: SNB-75 CNS
SR leukemia = test system: SR leukemia
SW-620 colon = test system: SW-620 colon
T-47D breast = test system: T-47D breast
TK-10 renal = test system: TK-10 renal
U251 CNS = test system: U251 CNS
UACC-257 melanoma = test system: UACC-257 melanoma
UACC-62 melanoma = test system: UACC-62 melanoma
UO-31 renal = test system: UO-31 renal

CN1CCN(c2ccc(Nc3nc(NCCCNS(=O)(=O)c4ccccc4)c4sccc4n3)cc2)CC1
GI50 (786-0 renal): 17.8 µM | TGI (786-0 renal): 43.2 µM | GI50 (A498 renal): 21.9 µM | TGI (A498 renal): 41.3 µM | GI50 (A549 NSCLC): 19.3 µM | TGI (A549 NSCLC): 48.8 µM | GI50 (ACHN renal): 15.2 µM | TGI (ACHN renal): 28.5 µM | GI50 (BT-549 breast): 17.1 µM | TGI (BT-549 breast): 37.4 µM | GI50 (CAKI-1 renal): 16.4 µM | TGI (CAKI-1 renal): 30 µM | GI50 (CCRF-CEM leukemia): 30.2 µM | TGI (CCRF-CEM leukemia): > 100 µM | GI50 (COLO 205 colon): 15.5 µM | TGI (COLO 205 colon): 31.4 µM | GI50 (DU-145 prostate): 15.4 µM | TGI (DU-145 prostate): 28.7 µM | GI50 (EKVX NSCLC): 23.5 µM | TGI (EKVX NSCLC): 64 µM | GI50 (HCC-2998 colon): 17.5 µM | TGI (HCC-2998 colon): 35.6 µM | GI50 (HCT-116 colon): 7.46 µM | TGI (HCT-116 colon): > 100 µM | GI50 (HCT-15 colon): 3.93 µM | TGI (HCT-15 colon): 18.8 µM | GI50 (HL-60(TB) leukemia): 14.9 µM | TGI (HL-60(TB) leukemia): 53.6 µM | GI50 (HOP-62 NSCLC): 17 µM | TGI (HOP-62 NSCLC): 33.2 µM | GI50 (HOP-92 NSCLC): 12.3 µM | TGI (HOP-92 NSCLC): 58.6 µM | GI50 (HS 578T breast): 13.5 µM | TGI (HS 578T breast): 38.5 µM | GI50 (HT29 colon): 5.79 µM | TGI (HT29 colon): 33.2 µM | GI50 (IGROV1 ovarian): 13.3 µM | TGI (IGROV1 ovarian): 27.3 µM | GI50 (K-562 leukemia): 3.18 µM | TGI (K-562 leukemia): > 100 µM | GI50 (KM12 colon): 20.4 µM | TGI (KM12 colon): 65.7 µM | GI50 (LOX IMVI melanoma): 5.9 µM | TGI (LOX IMVI melanoma): 20.2 µM | GI50 (M14 melanoma): 3.9 µM | TGI (M14 melanoma): 14.3 µM | GI50 (MALME-3M melanoma): 13.3 µM | TGI (MALME-3M melanoma): 26.2 µM | GI50 (MCF7 breast): 9.12 µM | TGI (MCF7 breast): 21.5 µM | GI50 (MDA-MB-231 breast): 12.8 µM | TGI (MDA-MB-231 breast): 30 µM | GI50 (MDA-MB-435): 14.2 µM | TGI (MDA-MB-435): 27.2 µM | GI50 (MOLT-4 leukemia): 5.46 µM | TGI (MOLT-4 leukemia): 46.6 µM | GI50 (NCI-H226 lung): 13.5 µM | TGI (NCI-H226 lung): 26.8 µM | GI50 (NCI-H23 lung): 15.8 µM | TGI (NCI-H23 lung): 31.6 µM | GI50 (NCI-H460 lung): 16.4 µM | TGI (NCI-H460 lung): 32.9 µM | GI50 (NCI-H522 lung): 14.6 µM | TGI (NCI-H522 lung): 30.3 µM | GI50 (NCI/ADR-RES ovarian): 21.2 µM | TGI (NCI/ADR-RES ovarian): 54.8 µM | GI50 (OVCAR-3 ovarian): 21.1 µM | TGI (OVCAR-3 ovarian): 55.6 µM | GI50 (OVCAR-4 ovarian): 13.4 µM | TGI (OVCAR-4 ovarian): 48.6 µM | GI50 (OVCAR-5 ovarian): 16.6 µM | TGI (OVCAR-5 ovarian): 44.4 µM | GI50 (OVCAR-8 ovarian): 15.5 µM | TGI (OVCAR-8 ovarian): 48.5 µM | GI50 (PC-3 prostate): 19.9 µM | TGI (PC-3 prostate): 77.4 µM | GI50 (RPMI-8226 leukemia): 7.3 µM | TGI (RPMI-8226 leukemia): 55.4 µM | GI50 (SF-268 CNS): 15.3 µM | TGI (SF-268 CNS): 63.1 µM | GI50 (SF-295 CNS): 16 µM | TGI (SF-295 CNS): 30.2 µM | GI50 (SF-539 CNS): 11.8 µM | TGI (SF-539 CNS): 24 µM | GI50 (SK-MEL-2 melanoma): 17.5 µM | TGI (SK-MEL-2 melanoma): 32.3 µM | GI50 (SK-MEL-28 melanoma): 13.5 µM | TGI (SK-MEL-28 melanoma): 26.3 µM | GI50 (SK-MEL-5 melanoma): 16.6 µM | TGI (SK-MEL-5 melanoma): 30.6 µM | GI50 (SK-OV-3 ovarian): 29.6 µM | TGI (SK-OV-3 ovarian): 81.3 µM | GI50 (SN12C renal): 14.8 µM | TGI (SN12C renal): 31.1 µM | GI50 (SNB-19 CNS): 25.6 µM | TGI (SNB-19 CNS): 67.7 µM | GI50 (SNB-75 CNS): 10.3 µM | TGI (SNB-75 CNS): 22 µM | GI50 (SR leukemia): 2.83 µM | TGI (SR leukemia): > 100 µM | GI50 (SW-620 colon): 12.4 µM | TGI (SW-620 colon): 27.6 µM | GI50 (T-47D breast): 18.3 µM | TGI (T-47D breast): 46.5 µM | GI50 (TK-10 renal): 23.7 µM | TGI (TK-10 renal): 48.6 µM | GI50 (U251 CNS): 7.64 µM | TGI (U251 CNS): 52.4 µM | GI50 (UACC-257 melanoma): 16.2 µM | TGI (UACC-257 melanoma): 32.8 µM | GI50 (UACC-62 melanoma): 12.9 µM | TGI (UACC-62 melanoma): 25.7 µM | GI50 (UO-31 renal): 12.5 µM | TGI (UO-31 renal): 25.5 µM
